Measurements: US11479536B1 (King Abdulaziz University, priority 2022, dated 2022)
Values after ≈ are worked out from the molar mass of the structure shown.

How the values were obtained:
MCF7 spheroids = assay: Cytotoxicity assay (MTT) in spheroid culture, MCF7; assay type: cell-based, human; details: for IC50: Homo sapiens, MCF7, 3D spheroid model, 48 h, MTT; for reduction of spheroid size: MCF7 spheroids treated at IC50 for 48 h, vs control
Procedure: 1×10^4 cells of each cell line (MCF7 and T47D) were seeded into ultra-low attachment 96 well plate at 37° C. and grown for 48 hours in DMEM media to result in the formation of spheroids. Then, the cells were subjected to the different treatment conditions before performing the assays.
The cytotoxic effects of MAK compounds were assessed against MCF7 and T47D cell lines using MTT cell viability assay. The cells were treated for 48 hours with different concentrations of each MAK compound and the control cells were subjected to the vehicle (0.1% DMSO). Then, 10% of 5 mg/mL MTT was added to each well containing treated or control cells, and mixture was incubated at 37° C. for 3 hours. After that, the MTT-containing media was replaced with 100 μL DMSO and incubated for 10 minutes at room temperature before measuring the absorbance for each well at 570 nm. According to the measured absorbance, the IC50 was calculated for each compound. All the experiments were performed in biological and experimental replicates.

[1] = Maximum kinetic aqueous solubility; assay type: physicochemical; details: phosphate buffer with 2% DMSO, kinetic from dmso stock, 2% DMSO/PBS, pH 7.4, read-out: maximum kinetic aqueous solubility (saturation)
Procedure: Solubility assays were performed using Millipore MultiScreen® HTS-PFC Filter Plates designed for solubility assays (EMD Millipore, Billerica, Mass.). Assays were run in triplicate. The 96-well plates consist of two chambers separated by a filter. Liquid handling was performed using JANUS® Verispan and MTD workstations (Perkin Elmer, Waltham, Mass.). 4 μL of MAK-1 or MAK-6 solution (10 mM in DMSO) was added to 196 μL of phosphate buffer (45 mM potassium phosphate, 45 mM sodium acetate, 45 mM ethanolamine, pH=7.4) in the top chamber to give a final DMSO concentration of 2% and a theoretical drug concentration of 200 μM. Plates were gently shaken for 90 min and then subjected to vacuum. Insoluble drug is captured on the filter. 160 μL of the filtrate is transferred to 96-well Griener UV Star® analysis plates (Sigma-Aldrich, St. Louis, Mo.) containing 40 μL of acetonitrile. The test compound concentration in the filtrate is measured by UV absorbance on a Spectromax® Plus microplate reader (Molecular Devices, Sunnyvale, Calif.) using Softmax Pro software v.5.4.5. Absorbances at 5 wavelengths (280, 300, 320, 340, and 360 nm) were summed to generate the UV signal. Standard curves were generated by adding 4 μL of five concentrations of test compound in DMSO to 40 μL of acetonitrile in UV Star plates followed by 156 μL of the appropriate solubility medium. […]

[2] = Stability in human liver microsomes; assay type: in vitro ADME
Procedure: Both mouse and human liver microsomes were obtained from Merck KGaA, (Darmstadt, Germany), Cat. No. M9441 (Mouse liver microsomes) and M0317 (Human liver microsomes). Assays were conducted in triplicate in 96-deep well polypropylene plates. The compounds were incubated with pooled liver microsomes from male CD-1 mice (Life Technologies, Grand Island, N.Y.), tetra-sodium NADPH and magnesium chloride for 60 min at 37° C. with gentle shaking. At five time points, reaction mixture aliquots were transferred to 96-shallow well stop plates on ice containing acetonitrile with 0.1 μM propafenone. […] Standard curves for test compound were generated using 5 concentrations in triplicate that were processed as above but with zero incubation time. Stop plates were centrifuged at 2000 g for 10 min and then supernatant aliquots were transferred to a Waters Aquity® UPLC 700 μL 96-well sample plate with cap mat (Waters, Milford, Mass.). The amount of compound remaining in the supernatant was quantified by LC/MS/MS using a Waters Xevo TQ MS (electrospray positive mode) coupled to a Waters Aquity® UPLC (BEH column, C18). Propafenone was used as the internal standard. GraphPad® Prism v 5.04 was used for nonlinear fitting of time course data to generate t1/2 values.

CYP2C9 = molecular target: T1, CYP2C9 (Homo sapiens, UniProt P11712); assay: Inhibition assay of human CYP450 enzymes, 2C9; assay type: in vitro ADME
T1 construct: purchased Fisher Scientific; host or cells: insect supersomes
Procedure: The two compounds MAK-1 and MAK-6 were assessed for its ability to inhibit the three major human CYP450 enzymes, 3A4, 2D6 and 2C9. Assays were run in triplicate. Expressed enzymes in insect supersomes (Fisher Scientific, Waltham, Mass.) were used to minimize non-specific binding and membrane partitioning issues (McMasters et al., 2007). The 3A4 assay uses testosterone as a substrate and analysis was performed by LC/MS/MS on a Waters Xevo TQ instrument as described above using positive electrospray ionization. Assay acceptance criteria was 20% for all standards and 25% for the LLOQ. The 2D6 and 2C9 assays use fluorescent substrates (3-[2-(N,N-diethylamino)ethyl]-7-methoxy-4-methylcoumarin for 2D6; 7-methoxy-4-(trifluoromethyl)coumarin for 2C9) and were analyzed on an Envision plate reader. GraphPad® Prism v 5.04 was used for nonlinear fitting of data to generate IC50 values.

[3] = Binding to mouse plasma proteins (equilibrium dialysis); assay type: in vitro ADME; details: CD-1, pH 7.4, 37° C., read-out: free, unbound fraction in mouse plasma
Procedure: The equilibrium dialysis method for determining plasma protein binding was performed as previously described using 96-well dialyzer plates with molecular weight cutoff of 5K (Harvard Apparatus, Holliston, Mass.) and a dual-plate rotator set to maximum speed (Harvard Apparatus, Holliston, Mass.) located in a 37° C. incubator with a 10% CO2-atmospheric environment. Assays were run in triplicate. The test compounds were added to CD-1 mouse plasma (Innovative Research, Novi, Mich., sodium heparin added as anticoagulant; pH adjusted to 7.4 with 2N HCl on day of use) in DMSO (final DMSO concentration 0.4%) to give 10 μM final concentration. Drug/plasma mixture and buffer (Dulbecco's phosphate-buffered saline 1× without calcium and magnesium, Mediatech, Inc., Herndon, Va.) were placed in their respective sides, wells were capped, and the plate was placed in the rotator and allowed to dialyze for 22 h. Following dialysis, aliquots of buffer and plasma mixture were removed and mixed with aliquots of the opposite matrix in 96-well deep plates. Concentrations of analytes from each side of the dialysis plate were determined by LC/MS/MS on a Waters Xevo TQ instrument as described above using positive electrospray ionization. […] The fraction unbound was calculated by dividing the drug concentration in the buffer side of the dialysis plate by the drug concentration in the plasma side.

T1 sequence (P11712 whole entry): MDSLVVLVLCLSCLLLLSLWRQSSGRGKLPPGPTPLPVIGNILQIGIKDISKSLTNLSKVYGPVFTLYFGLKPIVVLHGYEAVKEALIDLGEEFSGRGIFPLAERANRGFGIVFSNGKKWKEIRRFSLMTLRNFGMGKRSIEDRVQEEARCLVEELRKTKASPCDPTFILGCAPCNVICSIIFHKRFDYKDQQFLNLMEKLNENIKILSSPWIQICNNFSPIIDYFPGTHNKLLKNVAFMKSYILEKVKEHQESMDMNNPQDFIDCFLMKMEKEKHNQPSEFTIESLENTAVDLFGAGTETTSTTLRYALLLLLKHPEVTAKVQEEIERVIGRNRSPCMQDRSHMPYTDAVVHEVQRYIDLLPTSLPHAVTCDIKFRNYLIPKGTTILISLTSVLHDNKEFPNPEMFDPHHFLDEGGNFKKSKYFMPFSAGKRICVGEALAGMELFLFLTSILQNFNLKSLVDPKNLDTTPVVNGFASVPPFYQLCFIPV

SMILES	IC50 (MCF7 spheroids) [µM]	reduction of spheroid size (MCF7 spheroids)	solubility kinetic at 90 min [1] [µM]	half-life ([2]; human, liver microsomes, in the presence of NADPH, 37° C., read-out: stability to oxidative metabolism in human liver microsomes (t1/2)) [min]	stability in human liver microsomes ([2]; lacking (in absence of) NADPH)	inhibition of CYP2C9 (CYP2C9; concentrations up to 10 μM)	fraction unbound at 22 h, 10 μM [3]	stability in human liver microsomes ([2]; in presence of NADPH, result in words)	inhibition of CYP2C9 (CYP2C9; concentration not given)
COc1cccc(C(=O)Nc2ccc(CC(=O)NCc3ccccc3)cc2)c1 [MAK-1, N-(4-(2-(benzylamino)-2-oxoethyl)phenyl)-3-methoxybenzamide]	23.81 ± 0.16	noticeable reduction	9.4 (≈ 3.52 µg/mL)	35	a trend that was not repeated	no inhibition	0.083	–	–
O=C(Cc1ccc(NC(=O)c2cccc(Cl)c2)cn1)NCc1ccccc1 [MAK-6, N-(6-(2-(benzylamino)-2-oxoethyl)pyridin-3-yl)-3-chlorobenzamide]	22.9 ± 0.245	noticeable reduction	3.7 (≈ 1.41 µg/mL)	–	highly stable	–	0.087	highly stable	did not display any inhibitory activity
